Measured values reported in ChEMBL document CHEMBL1201862, “PubChem BioAssay data set” (2004).
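A five-concentration, 48-hour dose response in 96-well plates underlies each endpoint, interpolated linearly between surrounding concentrations. Here, GI50 denotes the concentration required for 50% inhibition of growth.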 Calls of active or inactive are those of the source. No stated cut-off is given here; in the data, active = GI50 up to about 1.1 µM and inactive = higher.

Legend:
Assay in all cases: NCI-60 cell line screen, 48 h
IGROV-1 = test system: IGROV-1
SNB-75 = test system: SNB-75
786-0 = test system: 786-0
HCT-15 = test system: HCT-15
PC-3 = test system: PC-3
NCI-H522 = test system: NCI-H522
SF-268 = test system: SF-268
SK-MEL-28 = test system: SK-MEL-28
HL-60 = test system: HL-60
Hs-578T = test system: Hs-578T
MDA-MB-435 = test system: MDA-MB-435
OVCAR-5 = test system: OVCAR-5
ACHN = test system: ACHN
SNB-19 = test system: SNB-19
CCRF-CEM = test system: CCRF-CEM
U-251 = test system: U-251
NCI-H226 = test system: NCI-H226
M14 = test system: M14
COLO 205 = test system: COLO 205
OVCAR-4 = test system: OVCAR-4

Compound | GI50 (IGROV-1) | GI50 (SNB-75) | GI50 (786-0) | GI50 (HCT-15) | GI50 (PC-3) | GI50 (NCI-H522) | GI50 (SF-268) | GI50 (SK-MEL-28) | GI50 (HL-60) | GI50 (Hs-578T) | GI50 (MDA-MB-435) | GI50 (OVCAR-5) | GI50 (ACHN) | GI50 (SNB-19) | GI50 (CCRF-CEM) | GI50 (U-251) | GI50 (NCI-H226) | GI50 (M14) | GI50 (COLO 205) | GI50 (OVCAR-4)
CSc1nc(SC)c2c(CN=[N+]=[N-])c(Br)n(Cc3ccccc3)c2n1 | > 100 µM (inactive) | 51.3 µM (inactive) | > 100 µM (inactive) | > 100 µM | > 100 µM (inactive) | > 100 µM (inactive) | > 100 µM (inactive) | > 100 µM (inactive) | 62.1 µM (inactive) | 53.1 µM (inactive) | 55.7 µM (inactive) | > 100 µM (inactive) | > 100 µM (inactive) | > 100 µM (inactive) | 72.6 µM (inactive) | 71.9 µM (inactive) | 83.8 µM (inactive) | > 100 µM (inactive) | > 100 µM (inactive) | 76.7 µM (inactive)
CSCCC(NC(c1ccccc1)c1ccccc1)[PH](=O)O (stereo not given) | > 100 µM (inactive) | > 100 µM (inactive) | > 100 µM (inactive) | > 100 µM | > 100 µM (inactive) | > 100 µM (inactive) | > 100 µM (inactive) | > 100 µM (inactive) | > 100 µM (inactive) | > 100 µM (inactive) | > 100 µM (inactive) | > 100 µM (inactive) | > 100 µM (inactive) | > 100 µM (inactive) | > 100 µM (inactive) | > 100 µM (inactive) | > 100 µM (inactive) | > 100 µM (inactive) | > 100 µM (inactive) | > 100 µM (inactive)
Cc1c2cc[n+](C)cc2c(C)c2c1oc1ccccc12 | 4.74 µM (inactive) | 1.98 µM (inactive) | 1.17 µM (inactive) | > 87.3 µM | 6.38 µM (inactive) | 1.95 µM (inactive) | 0.406 µM (active) | 6.85 µM (inactive) | 12 µM (inactive) | 0.54 µM (active) | 7.83 µM (inactive) | 15.6 µM (inactive) | 39.6 µM (inactive) | 0.893 µM (active) | 3.18 µM (inactive) | 0.652 µM (active) | 2.19 µM (inactive) | 14.6 µM (inactive) | 3.51 µM (inactive) | 7.14 µM (inactive)
Cc1ccc(CC2(OCCN(C)C)CCC(C(C)(C)C)CC2)cc1 (stereo not given) | 8.99 µM (inactive) | 6.71 µM (inactive) | 1.88 µM (inactive) | 4.63 µM | 3.89 µM (inactive) | 4.88 µM (inactive) | 9.33 µM (inactive) | 1.91 µM (inactive) | 2.02 µM (inactive) | 8.04 µM (inactive) | 2.4 µM (inactive) | 3.3 µM (inactive) | 8.02 µM (inactive) | 5.28 µM (inactive) | 2.65 µM (inactive) | 2.41 µM (inactive) | 5.28 µM (inactive) | 1.87 µM (inactive) | 1.48 µM (inactive) | 5.13 µM (inactive)
Cc1cc2c(cc1Cl)SC(NNc1ccc([N+](=O)[O-])cc1)=NS2(=O)=O | > 10 µM (inactive) | > 10 µM (inactive) | > 10 µM (inactive) | > 10 µM | > 10 µM (inactive) | > 10 µM (inactive) | > 10 µM (inactive) | > 10 µM (inactive) | > 10 µM (inactive) | > 10 µM (inactive) | > 10 µM (inactive) | > 10 µM (inactive) | > 10 µM (inactive) | > 10 µM (inactive) | > 10 µM (inactive) | > 10 µM (inactive) | > 10 µM (inactive) | > 10 µM (inactive) | > 10 µM (inactive) | > 10 µM (inactive)
O=C(Oc1cccc2cccnc12)c1cc2cc(CCl)ccc2oc1=O | 24.4 µM (inactive) | 56 µM (inactive) | 20.7 µM (inactive) | 2.77 µM | 12.7 µM (inactive) | 2.18 µM (inactive) | 18.5 µM (inactive) | 30.1 µM (inactive) | 3.22 µM (inactive) | 46.2 µM (inactive) | 10.8 µM (inactive) | 31.5 µM (inactive) | 19 µM (inactive) | 43.7 µM (inactive) | 0.277 µM (active) | 24.3 µM (inactive) | 75.9 µM (inactive) | 5.64 µM (inactive) | 6.3 µM (inactive) | 25.6 µM (inactive)
N#C/C(=C\c1cc(O)c(O)c(O)c1)C(N)=O | > 100 µM (inactive) | 63.7 µM (inactive) | 54.6 µM (inactive) | > 74.5 µM | > 22.2 µM (inactive) | > 66.4 µM (inactive) | 67.3 µM (inactive) | > 100 µM (inactive) | 37.8 µM (inactive) | > 100 µM (inactive) | > 55.7 µM (inactive) | > 100 µM (inactive) | > 93.8 µM (inactive) | > 100 µM (inactive) | 38.3 µM (inactive) | > 87.5 µM (inactive) | > 100 µM (inactive) | > 90.2 µM (inactive) | > 100 µM (inactive) | 74.8 µM (inactive)
CSc1nc(C)cc(Nc2ccc(O)c(CN3CCOCC3)c2)n1 | > 100 µM (inactive) | > 100 µM (inactive) | > 100 µM (inactive) | > 100 µM | > 100 µM (inactive) | > 100 µM (inactive) | > 100 µM (inactive) | > 100 µM (inactive) | > 100 µM (inactive) | > 100 µM (inactive) | > 100 µM (inactive) | > 100 µM (inactive) | > 100 µM (inactive) | > 100 µM (inactive) | > 100 µM (inactive) | > 100 µM (inactive) | > 100 µM (inactive) | > 100 µM (inactive) | > 100 µM (inactive) | > 100 µM (inactive)
